Among the data in patent US20240246941A1, “SUBSTITUTED 4-(3-AMINOPROP-1-YL)AMINOQUINOLINE ANALOGS AS MODULATORS OF MELANOMA-ASSOCIATED ANTIGEN 11 UBIQUITIN LIGASE” (ST. JUDE CHILDREN'S RESEARCH HOSPITAL, INC., priority 2020, published 2024) are IC50 values, retold here.

Where two headings read alike, the source gives them in different places.

This test addresses interaction between GST-MAGEA11 MHD and FAM-PCF11_4 peptide (MAGE-A11:PCF11) (Homo sapiens (Human), UniProt P43364). The experiment in a line: TR-FRET dose response competition assay for disruption of MAGE-A11:PCF11 binding. A digest of the protocol:
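Competition TR-FRET at room temperature in 50 mM Tris pH 7.5, 20 mM MgCl2, 0.1 mg/ml BSA, 1 mM DTT: final 5 nM GST-MAGEA11 MHD, 5 nM Tb-anti-GST, 200 nM FAM-PCF11_4, 90 min. Ratio 520/490 nm converted to % inhibition; IC50 from sigmoidal fit.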

The mark [1] stands for this setting: Dose response TR-FRET screening of nine scaffold groups against MAGE-A11:PCF11, read-out: consensus IC50.
The mark [2] stands for this setting: Table 8, representative compounds, read-out: TR-FRET IC50.
The mark [3] stands for this setting: Table 5, dose response TR-FRET screening of 59 quinoline compounds against MAGE-A11:PCF11, read-out: TR-FRET IC50.

interaction between GST-MAGEA11 MHD and FAM-PCF11_4 peptide (MAGE-A11:PCF11), sequence (P43364 218-429): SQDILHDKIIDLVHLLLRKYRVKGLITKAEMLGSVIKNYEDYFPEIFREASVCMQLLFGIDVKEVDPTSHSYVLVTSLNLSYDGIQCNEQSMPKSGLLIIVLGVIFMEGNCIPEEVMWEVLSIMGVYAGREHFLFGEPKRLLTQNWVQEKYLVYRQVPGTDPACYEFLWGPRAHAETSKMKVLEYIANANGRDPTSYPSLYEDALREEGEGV

What is called IC50 is the point on the concentration scale where inhibition reaches its midpoint. Regarding `CCCCCn1c(-c2cccc(F)c2)nc2c1c(=O)[nH]c(=O)n2CCCC` [SJ000460165-1], under setting [1], the IC50 came to 69.9 µM.
Same read-out and setting: as for `CCCn1c(=O)[nH]c(=O)c2c1nc(-c1ccc(F)c(F)c1)n2CCOC` [SJ000460758-1], the figure is 69.9 µM.
The same measure, in the same setting: as for `CC(NC=O)c1ccc2c(c1)c1ccccc1n2C` (stereo not shown) [SJ000461804-1], the figure is 69.9 µM; as for `CCn1c2ccccc2c2cc(C(C)NC=O)ccc21` (stereo not shown) [SJ000461805-1], 69.9 µM.
Take `CC1CN(c2oc(-c3ccc([N+](=O)[O-])cc3)nc2C#N)CC(C)O1` (stereo not shown) [SJ000478204-1]: the IC50 under setting [1] came to 69.9 µM.
Regarding `CC1CN(c2oc(-c3ccc(Cl)cc3)nc2C#N)CC(C)O1` (stereo not shown) [SJ000478208-1], the IC50 under setting [1] came to 69.9 µM.
Turning to `COc1ccc(-c2nc(C#N)c(N3CC(C)OC(C)C3)o2)cc1` (stereo not shown) [SJ000478212-1], the IC50 under setting [1] was determined as 69.9 µM.
For `CCOc1ccc(-c2nc(C#N)c(N3CC(C)OC(C)C3)o2)cc1` (stereo not shown) [SJ000478356-1], under setting [1], the IC50 came to 69.9 µM.
Consider `Cc1ccc(-c2nc(C#N)c(N3CC(C)OC(C)C3)o2)cc1` (stereo not shown) [SJ000478358-1], for which the IC50 under setting [1] worked out at 69.9 µM.
Take `CC1CN(c2oc(-c3ccc(F)cc3)nc2C#N)CC(C)O1` (stereo not shown) [SJ000478453-1]: the IC50 under setting [1] is 69.9 µM.
Regarding `CCn1c2ccccc2c2cc(CNCC(C)O)ccc21` (stereo not shown) [SJ000505727-1], under setting [1], the IC50 was found to be 69.9 µM.
On the same count and under the same terms, as for `O=C1c2ccccc2NC(c2ccc(Br)cc2)N1Cc1ccc(Cl)cc1` (stereo not shown) [SJ000508213-1], the figure is 69.9 µM; as for `COc1ccc(CN2C(=O)c3ccccc3NC2c2ccc(F)cc2)cc1` (stereo not shown) [SJ000510740-1], 69.9 µM.
On to `COc1ccc(CN2C(=O)c3ccccc3NC2c2ccc(C)cc2)cc1` (stereo not shown) [SJ000510741-1], for which the IC50 under setting [1] was determined as 69.9 µM.
For the compound `COc1ccc(C2Nc3ccccc3C(=O)N2Cc2ccc(F)cc2)cc1` (stereo not shown) [SJ000510742-1], the IC50 under setting [1] was found to be 69.9 µM.
For the compound `COc1ccc(C2Nc3ccccc3C(=O)N2Cc2ccc(C)cc2)cc1` (stereo not shown) [SJ000510743-1], the IC50 under setting [1] is 69.9 µM.
Regarding `COc1ccc(CN2C(=O)c3ccccc3NC2c2ccc(OC)cc2)cc1` (stereo not shown) [SJ000510744-1], the IC50 under setting [1] turned out to be 69.9 µM.
Same read-out and setting: as for `COc1ccc(CN2C(=O)c3ccccc3NC2c2ccc([N+](=O)[O-])cc2)cc1` (stereo not shown) [SJ000510745-1], the figure is 69.9 µM; as for `CN(Cc1ccno1)C(=O)c1ccc2c(c1)c1ccccc1n2C` [SJ000516830-1], 69.9 µM.
Take `Cc1cc(-c2nc3c(c(=O)[nH]c(=O)n3C)n2C)ccc1Cl` [SJ000517919-1]: the IC50 under setting [1] was 69.9 µM.
On to `Cn1c(-c2ccc3c(c2)OCO3)nc2c1c(=O)[nH]c(=O)n2C` [SJ000518479-1], for which the IC50 under setting [1] worked out at 69.9 µM.
On to `COc1cc(C)c2c(Oc3cccc(C(F)(F)F)c3)c(OC)cc(NC(C)CCCN)c2n1` (stereo not shown) [SJ000518991], for which the IC50 under setting [2] was above 65.7 µM.
Consider `CN(C)C1=C2C=CC=CC2C(CNCCCNc2ccnc3cc(Cl)ccc23)C=C1` (stereo not shown) [SJ000520354], for which the IC50 under setting [2] was found to be 69.9 µM.
In the case of `Clc1ccc2c(NCCCN(Cc3ccccc3)Cc3ccc4[nH]ccc4c3)ccnc2c1` [SJ000520430-1], under setting [3], the IC50 came out at 41.7 µM.
`Clc1ccc2c(NCCCN(Cc3ccccc3)Cc3c[nH]c4ccccc34)ccnc2c1` [SJ000520433-1]: under setting [3], the IC50 was above 70 µM.
In the case of `Clc1ccc2c(NCCCCN(Cc3ccccc3)Cc3ccc4[nH]ccc4c3)ccnc2c1` [SJ000520434-1], under setting [3], the IC50 was found to be 23.4 µM.
As for `COC1CCC(C(F)(F)F)C1CN(CCCCNc1ccnc2cc(Cl)ccc12)Cc1ccccc1` (stereo not shown) [SJ000520444-1], the IC50 under setting [3] was above 70 µM.
Still for that read-out and setting: with `Clc1ccc2c(NCCCCN(Cc3ccccc3)Cc3csc4ccccc34)ccnc2c1` [SJ000520446-1] the figure was above 70 µM; with `Cc1ccc(F)cc1CN(CCCCNc1ccnc2cc(Cl)ccc12)Cc1ccccc1` [SJ000520449-1], above 70 µM; with `FC(F)(F)Oc1ccc(CN(CCCCNc2ccnc3cc(Cl)ccc23)Cc2ccccc2)cc1` [SJ000520451-1], above 70 µM.
Same read-out and setting: with `FC(F)(F)Oc1cccc(CN(CCCCNc2ccnc3cc(Cl)ccc23)Cc2ccccc2)c1` [SJ000520457-1] the figure was above 70 µM; with `CCCN(CCCNc1ccnc2cc(C(F)(F)F)ccc12)CCC(C)(C)C` [SJ000520476-1], above 70 µM.
With `FC(F)(F)c1ccccc1CNCCCNc1ccnc2cc(Cl)ccc12` [SJ000520908-2], under setting [1], the IC50 was 69.9 µM.
Regarding `FC(F)(F)c1ccccc1CNCCCNc1ccnc2cc(Cl)ccc12` [SJ000520908], the IC50 under setting [2] was 69.9 µM.
With `Clc1ccc2c(NCCCNCc3ccc4[nH]ccc4c3)ccnc2c1` [SJ000520909-2], the IC50 under setting [1] is 67.1 µM.
Still for that read-out and setting: as for `Fc1c(F)c(F)c(CNCCCNc2ccnc3cc(Cl)ccc23)c(F)c1F` [SJ000520910-1], the figure is 69.9 µM.
For the compound `Fc1c(F)c(F)c(CNCCCNC2CCNC3(Cl)CCC23)c(F)c1F` (stereo not shown) [SJ000520910], under setting [2], the IC50 was 69.9 µM.
For the compound `Cc1cc(C)c(CNCCCNc2ccnc3cc(Cl)ccc23)c(C)c1` [SJ000520911-2], the IC50 under setting [1] amounted to 68.1 µM.
Consider `Cc1cc(C)c(CNCCCNc2ccnc3cc(Cl)ccc23)c(C)c1` [SJ000520911], for which, under setting [2], the IC50 worked out at 68.1 µM.
With `CCCN(CCCNc1ccnc2cc(C(F)(F)F)ccc12)Cc1ccc(CC)cc1` [SJ000521009-2], the IC50 under setting [3] is above 70 µM.
For `COC(=O)CCCCCNCCCNc1ccnc2cc(Cl)ccc12` [SJ000521021-1], the IC50 under setting [3] stood at 31.4 µM.
With `FC(F)(F)Oc1cccc(CNCCCNc2ccnc3cc(Cl)ccc23)c1` [SJ000521022-2], the IC50 under setting [1] came out at 69.9 µM.
In the case of `FC(F)(F)Oc1cccc(CNCCCNc2ccnc3cc(Cl)ccc23)c1` [SJ000521022], the IC50 under setting [2] was determined as 69.9 µM.
As for `FC(F)(F)c1cccc(CNCCCNc2ccnc3cc(Cl)ccc23)c1` [SJ000521024-1], the IC50 under setting [1] was found to be 69.9 µM.
On to `FC(F)(F)c1cccc(CNCCCNc2ccnc3cc(Cl)ccc23)c1` [SJ000521024], for which the IC50 under setting [2] is 69.9 µM.
Take `FC(F)(F)Oc1ccc(CNCCCNc2ccnc3cc(Cl)ccc23)cc1` [SJ000521025-1]: the IC50 under setting [1] is 69.9 µM.
Turning to `FC(F)(F)Oc1ccc(CNCCCNc2ccnc3cc(Cl)ccc23)cc1` [SJ000521025], the IC50 under setting [2] came out at 69.9 µM.
Turning to `COc1ccc(F)c(CNCCCNc2ccnc3cc(Cl)ccc23)c1` [SJ000521030-1], the IC50 under setting [1] was 69.9 µM.
Regarding `COc1ccc(F)c(CNCCCNc2ccnc3cc(Cl)ccc23)c1` [SJ000521030], the IC50 under setting [2] came to 69.9 µM.
For `Fc1cccc(C(F)(F)F)c1CNCCCNc1ccnc2cc(Cl)ccc12` [SJ000521031-1], the IC50 under setting [1] is 69.9 µM.
In the case of `Fc1cccc(C(F)(F)F)c1CNCCCNc1ccnc2cc(Cl)ccc12` [SJ000521031], the IC50 under setting [2] stood at 69.9 µM.
With `Clc1ccc2c(NCCCNCc3cc4ccccc4s3)ccnc2c1` [SJ000521032-1], the IC50 under setting [3] is above 70 µM.
Still for that read-out and setting: as for `Clc1ccc2c(NCCCNCc3csc4ccccc34)ccnc2c1` [SJ000521033-1], the figure is above 70 µM.
As for `COc1ccc(OC(F)(F)F)cc1CNCCCNc1ccnc2cc(Cl)ccc12` [SJ000521035-1], the IC50 under setting [1] was determined as 69.9 µM.
For the compound `COc1ccc(OC(F)(F)F)cc1CNCCCNc1ccnc2cc(Cl)ccc12` [SJ000521035], the IC50 under setting [2] stood at 69.9 µM.
`COc1ccc(C(F)(F)F)cc1CNCCCNc1ccnc2cc(Cl)ccc12` [SJ000521036-1]: the IC50 under setting [1] worked out at 69.9 µM.
Consider `COc1ccc(C(F)(F)F)cc1CNCCCNc1ccnc2cc(Cl)ccc12` [SJ000521036], for which, under setting [2], the IC50 amounted to 69.9 µM.
As to `CCc1ccc(CNCCCNc2ccnc3cc(Cl)ccc23)cc1` [SJ000521039-1], the IC50 under setting [1] came out at 69.9 µM.
`CCc1ccc(CNCCCNc2ccnc3cc(Cl)ccc23)cc1` [SJ000521039]: the IC50 under setting [2] turned out to be 69.9 µM.
With `FC(F)(F)Oc1cccc(CNCCCNc2ccnc3cc(C(F)(F)F)ccc23)c1` [SJ000521045-2], under setting [1], the IC50 was 69.9 µM.
With `FC(F)(F)Oc1cccc(CNCCCNc2ccnc3cc(C(F)(F)F)ccc23)c1` [SJ000521045], under setting [2], the IC50 turned out to be 69.9 µM.
Consider `FC(F)(F)c1cccc(CNCCCNc2ccnc3cc(C(F)(F)F)ccc23)c1` [SJ000521047-1], for which the IC50 under setting [1] was found to be 69.9 µM.
Take `FC(F)(F)c1cccc(CNCCCNc2ccnc3cc(C(F)(F)F)ccc23)c1` [SJ000521047]: the IC50 under setting [2] was 69.9 µM.
Take `FC(F)(F)c1ccc2c(NCCCNCc3cccc4c3OCO4)ccnc2c1` [SJ000521048-1]: under setting [1], the IC50 worked out at 69.9 µM.
Take `FC(F)(F)c1ccc2c(NCCCNCc3cccc4c3OCO4)ccnc2c1` [SJ000521048]: under setting [2], the IC50 was determined as 69.9 µM.
Regarding `FC(F)(F)c1ccc2c(NCCCNCc3ccccc3C(F)(F)F)ccnc2c1` [SJ000521049-1], the IC50 under setting [1] was determined as 69.9 µM.
Turning to `FC(F)(F)c1ccc2c(NCCCNCc3ccccc3C(F)(F)F)ccnc2c1` [SJ000521049], the IC50 under setting [2] came out at 69.9 µM.
Consider `FC(F)(F)Oc1ccc(CNCCCNc2ccnc3cc(C(F)(F)F)ccc23)cc1` [SJ000521050-1], for which the IC50 under setting [1] is 69.9 µM.
For the compound `FC(F)(F)Oc1ccc(CNCCCNc2ccnc3cc(C(F)(F)F)ccc23)cc1` [SJ000521050], the IC50 under setting [2] was found to be 69.9 µM.
As for `COc1cccc(F)c1CNCCCNc1ccnc2cc(C(F)(F)F)ccc12` [SJ000521051-1], the IC50 under setting [1] was found to be 69.9 µM.
Consider `COc1cccc(F)c1CNCCCNc1ccnc2cc(C(F)(F)F)ccc12` [SJ000521051], for which the IC50 under setting [2] came out at 69.9 µM.
With `COc1ccc(F)cc1CNCCCNc1ccnc2cc(C(F)(F)F)ccc12` [SJ000521052-1], the IC50 under setting [1] was found to be 69.9 µM.
As for `COc1ccc(F)cc1CNCCCNc1ccnc2cc(C(F)(F)F)ccc12` [SJ000521052], the IC50 under setting [2] was 69.9 µM.
With `FC(F)(F)c1ccc2c(NCCCNCc3ccc4[nH]ccc4c3)ccnc2c1` [SJ000521054-1], the IC50 under setting [1] was 0.397 µM.
In the case of `FC(F)(F)c1ccc2c(NCCCNCc3cc(Br)cs3)ccnc2c1` [SJ000521056-1], under setting [3], the IC50 is above 70 µM.
For the compound `COc1ccc(F)c(CNCCCNc2ccnc3cc(C(F)(F)F)ccc23)c1` [SJ000521058-1], the IC50 under setting [1] stood at 69.9 µM.
